Source: patent US6348468B1, “Pyridazine compounds and compositions containing the same” (Kowa Co., Ltd., priority 1997, dated 2002)

Assays:
[1] = tested on: IL-6 Production; experiment: Inhibitory activity against IL-6 production (LPS-stimulated RAW 264.7 cells, ELISA); type: cell-based; details: Mus musculus, RAW264.7, lipopolysaccharide, culturing for 20 hours
Method: RAW 264.7 cells, which had been cultured until confluence on DMEM culture with 10% fetal bovine serum (FBS) added thereto, were diluted to 1×10^6 cells/ml with the same medium, and were then inoculated at 100 μl/well to a 96-well plate. A test sample which had been diluted with the same medium and lipopolysaccharide of 4 μg/ml in concentration was added at 50 μl/well, respectively. Subsequent to culturing for 20 hours, the cultures were collected.
The amount of IL-6 in each of the thus-obtained cultures of RAW 264.7 cells was measured by ELISA, and 5 the inhibitory activity against IL-6 production was determined with reference to a standard curve of IL-6.

[2] = tested on: Interleukin-1β (IL-1β) Production; experiment: Inhibitory activity against interleukin-1β production (LPS-stimulated HL-60 cells, ELISA); type: cell-based; details: Homo sapiens, 72 h, lipopolysaccharide 10 μg/ml, culturing for 3 days
Method: HL-60 cells were cultured for 4 days until confluence on RPMI 1640 medium with 10% fetal bovine serum (FBS) added thereto. The HL-60 cells were centrifuged. The supernatant was discarded, and the cells were then suspended at 1×10^6 cells/ml on RPMI 1640 medium with 3% FBS, and lipopolysaccharide was added to give a final concentration of 10 μg/ml. The culture was inoculated at 1 ml/well to a 24-well plate. A test sample was added at 1 μl/well, followed by culturing for 3 days. Three days later, the amount of interleukin-1β in each of the cultures was measured by ELISA. Its IC50 value was determined by a comparison in yield with a control to which no test sample was added.

[3] = tested on: TNF-α Production; experiment: Inhibitory activity against TNF-α production (LPS-stimulated RAW 264.7 cells, L-929 cytotoxicity readout); type: cell-based; details: Mus musculus, RAW264.7, lipopolysaccharide, culturing for 20 hours
Method: RAW 264.7 cells were cultured until confluence on DMEM culture with 10% fetal bovine serum (FBS), and were diluted to 1×10^6 cells/ml with the same medium and then inoculated at 100 μl/well to a 96-well plate. To the cells, a test sample which had been diluted with the same medium and lipopolysaccharide of 4 μg/ml was added at 50 μl/well, respectively. Subsequent to culturing for 20 hours, the cultures were collected.
Making use of cytotoxicity to L-929 cell strain, a TNF-α sensitive cell strain, the amount of TNF-α in each of the cultures was measured as will be described next. Described specifically, L-929 cells which had been cultured on MEM medium with 10% FBS added thereto were diluted to 2×10^5 cells/ml with the same medium, and were then inoculated at 100 μl/well to a 96-well plate. Subsequent to overnight incubation, standard TNF-α solutions, or 100-fold, 200-fold and 500-fold dilute solutions of the above-described culture of RAW 264.7 cells were added at 50 μl/well, and actinomycin D (4 μg/ml) was also added at 50 μl/well, followed by further culturing for 20 hours. Twenty hours later, each well was washed with PBS, viable cells were stained with crystal violet, and the inhibitory activity against TNF-α production was determined with reference to a standard curve of TNF-α.

[4] = tested on: dogs; experiment: Maximum no-effect level, oral once a day for 2 weeks, dogs; type: in vivo; details: orally once a day for 2 weeks
[5] = tested on: rats; experiment: Maximum no-effect level, oral once a day for 2 weeks, rats; type: in vivo; details: orally once a day for 2 weeks
[6] = tested on: collagen-induced arthritis models of mice; experiment: Therapeutic effects for arthritis in collagen-induced arthritis models of mice; type: in vivo; details: P.O.; for Percent inhibition to swelling: determined by quantitation of swelling; for Percent inhibition to arthritis development: determined depending on the existence or non-existence of swelling
Method: In accordance with the disclosure of Nature 283, 666-668, 1980, therapeutic effects for arthritis were evaluated by using collagen-induced arthritis models of mice.

| IC50 [2] | melting point | SMILES | other results |
| --- | --- | --- | --- |
| 29000 nM | – | COc1ccc(-c2cc(=O)n(CCCl)nc2-c2ccc(OC)cc2)cc1 [Comp. Comp'd 1] | IC50 [1]: 65000 nM; IC50 [3]: 10000 nM |
| 46000 nM | – | COc1ccc(-c2cc(=O)n(CCO)nc2-c2ccc(OC)cc2)cc1 [Comp. Comp'd 2] | IC50 [1]: 44000 nM; IC50 [3]: 26000 nM |
| 270 nM | – | COc1ccc(-c2cc(=O)n(CC=Cc3ccc(Cl)cc3Cl)nc2-c2ccc(OC)cc2)cc1 [Example 40, 5,6-bis(4-methoxyphenyl)-2-(2,4-dichlorocinnamyl)-2H-pyridazin-3-one] | – |
| 430 nM | 167.4 to 168.4 °C | COc1ccc(-c2cc(=O)n(Cc3cccnc3)nc2-c2ccc(OC)cc2)cc1 [Example 44, 5,6-bis(4-methoxyphenyl)-2-(3-pyridylmethyl)-2H-pyridazin-3-one] | – |
| 250 nM | – | CSc1ccc(-c2nn(Cc3cccnc3)c(=O)cc2-c2ccc(Cl)cc2)cc1 [Example 55, 5-(4-chlorophenyl)-6-[4-(methylthio)phenyl]-2-(3-pyridylmethyl)-2H-pyridazin-3-one] | – |
| 210 nM | 140.6 to 140.7 °C | CSc1ccc(-c2nn(Cc3ccccc3)c(=O)cc2-c2ccc(F)cc2)cc1 [Example 61, 5-(4-fluorophenyl)-6-[4-(methylthio)phenyl]-2-benzyl-2H-pyridazin-3-one] | – |
| 390 nM | 139.3 to 139.5 °C | CSc1ccc(-c2nn(Cc3ccc(Cl)cc3Cl)c(=O)cc2-c2ccc(F)cc2)cc1 [Example 65, 5-(4-fluorophenyl)-6-[4-(methylthio)phenyl]-2-(2,4-dichlorobenzyl)-2H-pyridazin-3-one] | – |
| 390 nM | – | COc1ccc(-c2nn(Cc3ccc(Cl)cc3)c(=O)cc2-c2ccncc2)cc1 [Example 78, 2-(4-chlorobenzyl)-6-(4-methoxyphenyl)-5-(4-pyridyl)-2H-pyridazin-3-one] | – |
| 190 nM | 134.7 to 148.6 °C | COc1ccc(-c2cc(=S)n(Cc3ccccc3)nc2-c2ccc(OC)cc2)cc1 [Example 123, 5,6-bis(4-methoxyphenyl)-2-benzyl-2H-pyridazine-3-thione] | – |
| 150 nM | – | COc1ccc(-c2cc(=S)n(Cc3ccc(F)cc3F)nc2-c2ccc(OC)cc2)cc1 [Example 126, 5,6-bis(4-methoxyphenyl)-2-(2,4-difluorobenzyl)-2H-pyridazine-3-thione] | – |
| 310 nM | – | COc1ccc(-c2cc(=S)n(Cc3cccnc3)nc2-c2ccc(OC)cc2)cc1 [Example 128, 5,6-bis(4-methoxyphenyl)-2-(3-pyridylmethyl)-2H-pyridazine-3-thione] | – |
| 200 nM | 183.2 to 183.4 °C | CSc1ccc(-c2nn(Cc3ccc(Cl)cc3Cl)c(=S)cc2-c2ccc(Cl)cc2)cc1 [Example 134, 5-(4-chlorophenyl)-2-(2,4-dichlorobenzyl)-6-[4-(methylthio)phenyl]-2H-pyridazine-3-thione] | – |
| 390 nM | – | CSc1ccc(-c2nn(Cc3cccnc3)c(=S)cc2-c2ccc(Cl)cc2)cc1 [Example 135, 5-(4-chlorophenyl)-6-[4-(methylthio)phenyl]-2-(3-pyridylmethyl)-2H-pyridazine-3-thione] | – |
| 270 nM | 135.7 to 135.8 °C | CSc1ccc(-c2nn(CC3CC3)c(=S)cc2-c2ccc(F)cc2)cc1 [Example 137, 2-cyclopropylmethyl-5-(4-fluorophenyl)-6-[4-(methylthio)phenyl]-2H-pyridazine-3-thione] | – |
| 180 nM | – | COc1ccc(-c2nn(Cc3ccc(Cl)cc3)c(=S)cc2-c2ccncc2)cc1 [Example 142, 2-(4-chlorobenzyl)-6-(4-methoxyphenyl)-5-(4-pyridyl)-2H-pyridazine-3-thione] | – |
| 490 nM | 177.8 to 178.5 °C | CCn1nc(-c2ccc(OC)c(F)c2)c(-c2ccc(OC)c(F)c2)cc1=O [Example 160, 5,6-bis(3-fluoro-4-methoxyphenyl)-2-ethyl-2H-pyridazin-3-one] | – |
| 610 nM | – | CCn1nc(-c2ccc(OC)cc2)c(-c2ccc(OC)cc2)cc1=O [Example 163, 5,6-bis(4-methoxyphenyl)-2-ethyl-2H-pyridazin-3-one] | IC50 [1]: 400 nM; IC50 [3]: 1200 nM |
| 1130 nM | – | COc1ccc(-c2cc(=O)n(C)nc2-c2ccc(OC)cc2)cc1 [Example 164, 5,6-bis(4-methoxyphenyl)-2-methyl-2H-pyridazin-3-one] | – |
| 1320 nM | – | COc1ccc(-c2cc(=O)n(C(C)C)nc2-c2ccc(OC)cc2)cc1 [Example 165, 5,6-bis(4-methoxyphenyl)-2-isopropyl-2H-pyridazin-3-one] | – |
| 7980 nM | – | COc1ccc(-c2cc(=O)n(C3CC3)nc2-c2ccc(OC)cc2)cc1 [Example 168, 5,6-bis(4-methoxyphenyl)-2-cyclopropyl-2H-pyridazin-3-one] | – |
| 1800 nM | – | COc1ccc(-c2cc(=O)n(CC3CC3)nc2-c2ccc(OC)cc2)cc1 [Example 169, 5,6-bis(4-methoxyphenyl)-2-cyclopropylmethyl-2H-pyridazin-3-one] | – |
| 1190 nM | – | COc1ccc(-c2cc(=S)n(CC3CC3)nc2-c2ccc(OC)cc2)cc1 [Example 170, 5,6-bis(4-methoxyphenyl)-2-cyclopropylmethyl-2H-pyridazine-3-thione] | – |
| 510 nM | 141.2 to 142.2 °C | COc1ccc(-c2cc(=O)n(C3CCCC3)nc2-c2ccc(OC)cc2)cc1 [Example 171, 5,6-bis(4-methoxyphenyl)-2-cyclopentyl-2H-pyridazin-3-one] | – |
| 110 nM | – | COc1ccc(-c2cc(=O)n(CC3CCCC3)nc2-c2ccc(OC)cc2)cc1 [Example 172, 5,6-bis(4-methoxyphenyl)-2-cyclopentylmethyl-2H-pyridazin-3-one] | – |

| SMILES | IC50 [2] | melting point | other results |
| --- | --- | --- | --- |
| CSc1ccc(-c2nn(Cc3ccccc3)c(=O)cc2-c2ccc(Cl)cc2)cc1 [Example 51, 2-benzyl-5-(4-chlorophenyl)-6-[4-(methylthio)phenyl]-2H-pyridazin-3-one] | 290 nM | – | Maximum no-effect level (dog) [4]: 30 mg/kg; toxicity at the dose level of Table 4 (in words) [4]: no toxicity was observed at all; Maximum no-effect level (rat) [5]: 100 mg/kg; toxicity at the dose level of Table 4 (in words) [5]: no toxicity was observed at all; Percent inhibition to swelling ([6]; 1 mg/kg): 33.3%; Percent inhibition to arthritis development ([6]; 1 mg/kg): 40%; Percent inhibition to swelling ([6]; 3 mg/kg): 77.4%; Percent inhibition to arthritis development ([6]; 3 mg/kg): 50% |
